Measured values taken from US10702506B2, “Small molecule inhibitors of pendrin ion exchange and pharmaceutical compositions” (THE REGENTS OF THE UNIVERSITY OF CALIFORNIA, priority 2016, dated 2020).
Read-outs that look alike come from different tables or passages of the source.

Target: T1, pendrin (Homo sapiens, UniProt O43511)
T1 sequence (O43511 1-780): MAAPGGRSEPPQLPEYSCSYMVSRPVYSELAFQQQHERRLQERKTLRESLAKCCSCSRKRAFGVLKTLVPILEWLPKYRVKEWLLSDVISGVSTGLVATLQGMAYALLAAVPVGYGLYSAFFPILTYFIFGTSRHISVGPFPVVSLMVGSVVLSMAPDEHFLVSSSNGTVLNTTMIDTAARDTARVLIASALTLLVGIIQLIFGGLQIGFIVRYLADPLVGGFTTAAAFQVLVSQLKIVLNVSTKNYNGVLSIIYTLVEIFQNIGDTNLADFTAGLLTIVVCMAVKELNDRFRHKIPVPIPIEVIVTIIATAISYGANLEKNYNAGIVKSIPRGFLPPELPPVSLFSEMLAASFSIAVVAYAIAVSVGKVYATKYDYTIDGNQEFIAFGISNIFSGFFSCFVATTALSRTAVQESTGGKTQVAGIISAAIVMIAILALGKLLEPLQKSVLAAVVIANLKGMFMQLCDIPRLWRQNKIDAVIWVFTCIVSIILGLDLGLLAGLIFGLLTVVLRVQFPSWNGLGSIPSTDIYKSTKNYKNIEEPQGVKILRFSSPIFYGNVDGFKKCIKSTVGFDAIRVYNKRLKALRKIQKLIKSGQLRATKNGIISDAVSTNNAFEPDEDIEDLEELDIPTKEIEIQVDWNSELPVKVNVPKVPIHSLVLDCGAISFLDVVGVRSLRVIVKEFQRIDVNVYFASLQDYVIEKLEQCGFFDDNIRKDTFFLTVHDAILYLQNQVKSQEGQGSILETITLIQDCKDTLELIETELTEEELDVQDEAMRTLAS
Experiment: YFP (EYFP-HIF) fluorescence quenching assay of pendrin-mediated Cl− exchange (SCN−, I−, NO3−) in FRT cells; high-throughput screen
Assay type: cell-based
Set-up: expressed in transfected cells
Conditions: for inhibition at 25 µM: FRT, read-out: Inh. (%), percentage inhibition of human pendrin
Description: Fischer rat thyroid (FRT) cells were cultured in Kaign's modified Ham's F12 medium supplemented with 10% FBS, 2 mM L-glutamine, 100 U/ml penicillin, […], […] myo-inositol and […] ascorbic acid. For high-throughput screening, FRT cells were stably transfected with EYFP-H148Q/I152L/F46L (EYFP-HIF; in pcDNA3.1/Hygro (+)), isolated using 0.25 mg/ml hygromycin B, and then transfected with pcDNA3.1 (+) encoding human pendrin with clonal cell lines selected using 0.5 mg/ml G418.
High-throughput screening was performed using a semi-automated screening platform (Beckman, Fullerton, Calif.) configured as described. FRT cells expressing human pendrin and EYFP-HIF were plated in 96-well black-walled, clear-bottom tissue culture plates (Corning, Corning, N.Y.) at a density of 20,000 cells/well, and cultured to confluence over 48 h. For screening, plates were washed twice with PBS (in mM: 137 NaCl, 2.7 KCl, 1.1 KH2PO4, 8.1 Na2HPO4, 0.9 CaCl2), 0.5 MgCl2) prior to addition of 100 μl PBS containing test compounds. Screening was done with ˜36,000 compounds from ChemDiv (San Diego, Calif.), TimTec (Newark, Del.), and Asinex (Winston-Salem, N.C.). After 10 min incubation with test compound, plates were transferred to a Tecan Infinite M1000 plate reader (Tecan, Morrisville, N.C.) for fluorescence assay of pendrin activity. The assay duration was 10 s with initial fluorescence intensity recorded for 2 s prior to addition of 100 μl of NaSCN-substituted PBS (137 mM NaCl replaced with NaSCN). All assay plates contained negative controls (DMSO). In some experiments Cl^− exchange for I^− or NO3^− was measured similarly using NaI and NaNO3-substituted PBS. Control experiments to measure basal ion transport rates were done in FRT cells expressing EYFP-HIF without pendrin.
FRT cells were chosen for screening due to their low intrinsic permeability to anions that are transported by pendrin. As depicted in FIGS. 1A and 2A, pendrin activity was assayed from the kinetics of the halide-sensitive fluorescent protein EYFP-HIF in response to addition of a SCN^−-containing solution to drive pendrin-mediated Cl^−/SCN^−. Pendrin inhibition reduces the rate of EYFP-HIF quenching. PDSinh-A01 land PDSinh-C01 decreased pendrin-mediated Cl^−/SCN^− and Cl^−/I^− exchange in a concentration-dependent manner, as measured by YFP fluorescence quenching. […] Because the only previously-described pendrin inhibitor is the weakly active compound niflumic acid, no positive control was included in the screening plates.

| SMILES | IC50 (Cl−/I− exchange, read-out: IC50 for Cl−/I− exchange) [µM] | IC50 (Cl−/NO3− exchange, read-out: IC50 for Cl−/NO3− exchange) [µM] | time at which ~IC50 (half inhibition) was displayed, inhibition kinetics (Cl−/SCN− exchange, 10 μM added for indicated times) [min] | IC50 (Cl−/SCN− exchange, read-out: IC50 for Cl−/SCN− exchange) [µM] | inhibition at 25 µM [%] | reversibility of inhibition by washout (washout) |
| --- | --- | --- | --- | --- | --- | --- |
| Cn1nc(COc2cccc(F)c2)c2c1CCN(C(=O)Nc1ccc(Cl)cc1)C2 [PDSinh-A01] | ~8 | ~5 | 5 | ~9 | ~100 | reversible |
| Cc1n[nH]c(-c2cc(S(=O)(=O)NC3CCCc4ccccc43)c(C)s2)c1C (stereo not shown) [PDSinh-C01] | – | – | – | – | 83 | – |
